Source: patent US12263172B2, “Toll-like receptor agonists for use in the treatment of hepatitis b” (priority 2019, dated 2025)

Test: Phase 1 single-ascending dose (Part 1): safety and tolerability in healthy adults
Type: in vivo, human
Description: This ongoing trial is a Phase 1 randomized, double-blind, placebo-controlled study in male and female healthy adult volunteers aged 18-55 years. All volunteers provided written, informed consent.
All volunteers were followed up for 4 weeks and safety and tolerability were continuously assessed throughout the study. All adverse events (AEs) were recorded from the time of consent to the completion visit and were graded using the DAIDS toxicity grading scale. Volunteers also underwent physical examinations, electrocardiograms, vital sign checks and clinical laboratory parameters (chemistry, haematology, urinalysis).

[1] = 1.8 mg and 1.25 mg fasted pooled

CCCCOc1nc(N)c2[nH]cc(Cc3ccc(CN4CCCC4)cc3)c2n1 [Compound 4]
time within which fever and flu-like symptoms resolved (1.25 mg and 1.8 mg fasted): 24 to 48 h | time within which low lymphocyte count resolved (1.25 mg fasted and 1.8 mg): ≤ 72 h | subjects with treatment-related headache overall [1]: 5 subjects | subjects with treatment-related pyrexia overall [1]: 5 subjects | subjects with treatment-related pyrexia grade 1 (Part 1, all single doses): 3 subjects | subjects with treatment-related pyrexia grade 2 (Part 1, all single doses): 2 subjects | deaths, other SAEs, or AEs of at least grade 3 (Part 1 and Part 2): no deaths, other SAEs, or AEs of at least grade 3 occurred | serious AEs or dose-limiting toxicities (all tested single doses): no serious AEs or dose-limiting toxicities | Any AE (treatment-emergent) (single dose 0.2 mg fasted): 4 (67) n (%) | Back pain Grade 1 (treatment-emergent AE) (single dose 0.2 mg fasted): 0 n (%) | Chills Grade 1 (treatment-emergent AE) (single dose 0.2 mg fasted): 0 n (%) | Contact dermatitis Grade 1 (treatment-emergent AE) (single dose 0.2 mg fasted): 2 (33) n (%) | Dizziness Grade 1 (treatment-emergent AE) (single dose 0.2 mg fasted): 1 (17) n (%) | ECG actual value: Heart rate (bpm) Low (single dose 0.2 mg fasted): 1 (16.7%) n (%) | ECG actual value: QRS (ms) High (single dose 0.2 mg fasted): 0 n (%) | ECG actual value: QTcB (ms) ]450; 480] (single dose 0.2 mg fasted): 0 n (%) | ECG actual value: QTcF (ms) ]450; 480] (single dose 0.2 mg fasted): 0 n (%) | ECG change from reference: QTcB (ms) [30; 60] (single dose 0.2 mg fasted): 0 n (%) | ECG change from reference: QTcF (ms) [30; 60] (single dose 0.2 mg fasted): 0 n (%) | Headache Grade 1 (treatment-emergent AE) (single dose 0.2 mg fasted): 1 (17) n (%) | Headache Grade 2 (treatment-emergent AE) (single dose 0.2 mg fasted): 0 n (%) | Hypertension Grade 1 (treatment-emergent AE) (single dose 0.2 mg fasted): 0 n (%) | Hypertension Grade 2 (treatment-emergent AE) (single dose 0.2 mg fasted): 0 n (%) | Myalgia Grade 1 (treatment-emergent AE) (single dose 0.2 mg fasted): 0 n (%) | Oropharyngeal pain Grade 1 (treatment-emergent AE) (single dose 0.2 mg fasted): 0 n (%) | Pyrexia Grade 1 (treatment-emergent AE) (single dose 0.2 mg fasted): 0 n (%) | Pyrexia Grade 2 (treatment-emergent AE) (single dose 0.2 mg fasted): 0 n (%) | URTI Grade 1 (treatment-emergent AE) (single dose 0.2 mg fasted): 0 n (%) | lab toxicity: Amylase (U/L), upwards, Grade 1 (single dose 0.2 mg fasted): 0 n (%) | lab toxicity: Amylase (U/L), upwards, Grade 2 (single dose 0.2 mg fasted): 1 (16.7%) n (%) | lab toxicity: Cholesterol (mmol/L), upwards, Grade 1 (single dose 0.2 mg fasted): 0 n (%) | lab toxicity: Cholesterol (mmol/L), upwards, Grade 2 (single dose 0.2 mg fasted): 1 (16.7%) n (%) | lab toxicity: Creatine kinase (U/L), upwards, Grade 1 (single dose 0.2 mg fasted): 3 (50.0%) n (%) | lab toxicity: Creatine kinase (U/L), upwards, Grade 2 (single dose 0.2 mg fasted): 0 n (%) | lab toxicity: Creatine kinase (U/L), upwards, Grade 4 (single dose 0.2 mg fasted): 0 n (%) | lab toxicity: Glucose (mmol/L), upwards, Grade 1 (single dose 0.2 mg fasted): 1 (16.7%) n (%) | lab toxicity: Glucose (mmol/L), upwards, Grade 2 (single dose 0.2 mg fasted): 0 n (%) | lab toxicity: LDL cholesterol (mmol/L, calculated), upwards, Grade 1 (single dose 0.2 mg fasted): 1 (16.7%) n (%) | lab toxicity: LDL cholesterol (mmol/L, calculated), upwards, Grade 2 (single dose 0.2 mg fasted): 1 (16.7%) n (%) | lab toxicity: LDL cholesterol (mmol/L, calculated), upwards, Grade 3 (single dose 0.2 mg fasted): 0 n (%) | lab toxicity: Lymphocytes (giga/L), downwards, Grade 2 (single dose 0.2 mg fasted): 0 n (%) | lab toxicity: Lymphocytes (giga/L), downwards, Grade 4 (single dose 0.2 mg fasted): 0 n (%) | lab toxicity: Neutrophils, segmented (giga/L), downwards, Grade 1 (single dose 0.2 mg fasted): 0 n (%) | lab toxicity: Neutrophils, segmented (giga/L), downwards, Grade 2 (single dose 0.2 mg fasted): 0 n (%) | lab toxicity: Platelets (giga/L), downwards, Grade 1 (single dose 0.2 mg fasted): 0 n (%) | lab toxicity: Sodium (mmol/L), upwards, Grade 1 (single dose 0.2 mg fasted): 0 n (%) | lab toxicity: Sodium (mmol/L), upwards, Grade 2 (single dose 0.2 mg fasted): 0 n (%) | lab toxicity: Triglycerides (mmol/L), upwards, Grade 1 (single dose 0.2 mg fasted): 1 (16.7%) n (%) | lab toxicity: Triglycerides (mmol/L), upwards, Grade 2 (single dose 0.2 mg fasted): 2 (33.3%) n (%) | lab toxicity: Triglycerides (mmol/L), upwards, Grade 3 (single dose 0.2 mg fasted): 0 n (%) | lab toxicity: Urate (μmol/L), upwards, Grade 1 (single dose 0.2 mg fasted): 2 (33.3%) n (%) | subjects with at least one AE for which any study drug or study was permanently stopped (single dose 0.2 mg fasted): 0 n (%) | subjects with at least one AE for which any study drug or study was temporarily stopped (single dose 0.2 mg fasted): 0 n (%) | subjects with at least one AE possibly related to any study drug (single dose 0.2 mg fasted): 0 n (%) | subjects with at least one AE possibly, probably or very likely related to any study drug (single dose 0.2 mg fasted): 0 n (%) | subjects with at least one AE probably related to any study drug (single dose 0.2 mg fasted): 0 n (%) | subjects with at least one AE very likely related to any study drug (single dose 0.2 mg fasted): 0 n (%) | subjects with at least one SAE (single dose 0.2 mg fasted): 0 n (%) | subjects with at least one fatal AE (single dose 0.2 mg fasted): 0 n (%) | subjects with at least one grade 1 AE (single dose 0.2 mg fasted): 4 (66.7%) n (%) | subjects with at least one grade 2 AE (single dose 0.2 mg fasted): 0 n (%) | subjects with at least one grade 3 or 4 AE (single dose 0.2 mg fasted): 0 n (%) | subjects with low hematocrit levels (non-graded) (single dose 0.2 mg fasted): 5 (83.3%) n (%) | treatment-related AE: Any AE (single dose 0.2 mg fasted): 0 n (%) | treatment-related AE: Chills (single dose 0.2 mg fasted): 0 n (%) | treatment-related AE: Dizziness (single dose 0.2 mg fasted): 0 n (%) | treatment-related AE: General disorders and administration site conditions (single dose 0.2 mg fasted): 0 n (%) | treatment-related AE: Headache (single dose 0.2 mg fasted): 0 n (%) | treatment-related AE: Hypertension (single dose 0.2 mg fasted): 0 n (%) | treatment-related AE: Myalgia (single dose 0.2 mg fasted): 0 n (%) | treatment-related AE: Nervous system disorders (single dose 0.2 mg fasted): 0 n (%) | treatment-related AE: Oropharyngeal pain (single dose 0.2 mg fasted): 0 n (%) | treatment-related AE: Pyrexia (single dose 0.2 mg fasted): 0 n (%) | treatment-related AE: Respiratory, thoracic and mediastinal disorders (single dose 0.2 mg fasted): 0 n (%) | treatment-related AE: Vascular disorder (single dose 0.2 mg fasted): 0 n (%) | vital signs: Respiratory rate (brpm) Grade 1 (single dose 0.2 mg fasted): 3 (50.0%) n (%) | vital signs: Respiratory rate (brpm) Grade 2 (single dose 0.2 mg fasted): 0 n (%) | vital signs: SaO2 (%) 90% to <95% (single dose 0.2 mg fasted): 1 (16.7%) n (%) | vital signs: SaO2 (%) 95% to <98% (single dose 0.2 mg fasted): 4 (66.7%) n (%) | vital signs: Standing DBP (mmHg) Grade 1 (single dose 0.2 mg fasted): 2 (33.3%) n (%) | vital signs: Standing DBP (mmHg) Grade 2 (single dose 0.2 mg fasted): 0 n (%) | vital signs: Standing DBP (mmHg) Grade 3 (single dose 0.2 mg fasted): 0 n (%) | vital signs: Standing DBP (mmHg) Low (single dose 0.2 mg fasted): 0 n (%) | vital signs: Standing SBP (mmHg) Grade 1 (single dose 0.2 mg fasted): 3 (50.0%) n (%) | vital signs: Standing SBP (mmHg) Low (single dose 0.2 mg fasted): 0 n (%) | vital signs: Standing pulse (bpm) High (single dose 0.2 mg fasted): 3 (50.0%) n (%) | vital signs: Standing pulse (bpm) Low (single dose 0.2 mg fasted): 0 n (%) | vital signs: Supine DBP (mmHg) Grade 1 (single dose 0.2 mg fasted): 0 n (%) | vital signs: Supine DBP (mmHg) Low (single dose 0.2 mg fasted): 0 n (%) | vital signs: Supine SBP (mmHg) Grade 1 (single dose 0.2 mg fasted): 0 n (%) | vital signs: Supine SBP (mmHg) Grade 2 (single dose 0.2 mg fasted): 0 n (%) | vital signs: Supine SBP (mmHg) Low (single dose 0.2 mg fasted): 1 (16.7%) n (%) | vital signs: Supine pulse (bpm) Low (single dose 0.2 mg fasted): 2 (33.3%) n (%) | ↑ AST Grade 3 (laboratory abnormality) (single dose 0.2 mg fasted): 0 n (%) | ↑ Amylase Grade 2 (laboratory abnormality) (single dose 0.2 mg fasted): 1 (17) n (%) | ↑ Cholesterol Grade 2 (laboratory abnormality) (single dose 0.2 mg fasted): 1 (17) n (%) | ↑ Creatine kinase Grade 2 (laboratory abnormality) (single dose 0.2 mg fasted): 0 n (%) | ↑ Creatine kinase Grade 4 (laboratory abnormality) (single dose 0.2 mg fasted): 0 n (%) | ↑ Glucose Grade 2 (laboratory abnormality) (single dose 0.2 mg fasted): 0 n (%) | ↑ LDL cholesterol Grade 2 (laboratory abnormality) (single dose 0.2 mg fasted): 1 (17) n (%) | ↑ LDL cholesterol Grade 3 (laboratory abnormality) (single dose 0.2 mg fasted): 0 n (%) | ↑ Lipase Grade 2 (laboratory abnormality) (single dose 0.2 mg fasted): 0 n (%) | ↑ Pancreatic amylase Grade 2 (laboratory abnormality) (single dose 0.2 mg fasted): 0 n (%) | ↑ Potassium Grade 2 (laboratory abnormality) (single dose 0.2 mg fasted): 0 n (%) | ↑ Sodium Grade 2 (laboratory abnormality) (single dose 0.2 mg fasted): 0 n (%) | ↑ Triglycerides Grade 2 (laboratory abnormality) (single dose 0.2 mg fasted): 2 (33) n (%) | ↑ Triglycerides Grade 3 (laboratory abnormality) (single dose 0.2 mg fasted): 0 n (%) | ↓ Bicarbonate Grade 2 (laboratory abnormality) (single dose 0.2 mg fasted): 1 (17) n (%) | ↓ GFR Grade 2 (laboratory abnormality) (single dose 0.2 mg fasted): 0 n (%) | ↓ Lymphocytes Grade 2 (laboratory abnormality) (single dose 0.2 mg fasted): 0 n (%) | ↓ Lymphocytes Grade 4 (laboratory abnormality) (single dose 0.2 mg fasted): 0 n (%) | ↓ Neutrophils Grade 2 (laboratory abnormality) (single dose 0.2 mg fasted): 0 n (%) | ↓ Phosphate Grade 2 (laboratory abnormality) (single dose 0.2 mg fasted): 0 n (%) | Any AE (treatment-emergent) (single dose 0.6 mg fasted): 3 (50) n (%) | Back pain Grade 1 (treatment-emergent AE) (single dose 0.6 mg fasted): 0 n (%) | Chills Grade 1 (treatment-emergent AE) (single dose 0.6 mg fasted): 0 n (%) | Contact dermatitis Grade 1 (treatment-emergent AE) (single dose 0.6 mg fasted): 0 n (%) | Dizziness Grade 1 (treatment-emergent AE) (single dose 0.6 mg fasted): 0 n (%) | ECG actual value: Heart rate (bpm) Low (single dose 0.6 mg fasted): 0 n (%) | ECG actual value: QRS (ms) High (single dose 0.6 mg fasted): 0 n (%) | ECG actual value: QTcB (ms) ]450; 480] (single dose 0.6 mg fasted): 0 n (%) | ECG actual value: QTcF (ms) ]450; 480] (single dose 0.6 mg fasted): 0 n (%) | ECG change from reference: QTcB (ms) [30; 60] (single dose 0.6 mg fasted): 3 (50.0%) n (%) | ECG change from reference: QTcF (ms) [30; 60] (single dose 0.6 mg fasted): 0 n (%) | Headache Grade 1 (treatment-emergent AE) (single dose 0.6 mg fasted): 0 n (%) | Headache Grade 2 (treatment-emergent AE) (single dose 0.6 mg fasted): 0 n (%) | Hypertension Grade 1 (treatment-emergent AE) (single dose 0.6 mg fasted): 0 n (%) | Hypertension Grade 2 (treatment-emergent AE) (single dose 0.6 mg fasted): 0 n (%) | Myalgia Grade 1 (treatment-emergent AE) (single dose 0.6 mg fasted): 0 n (%) | Oropharyngeal pain Grade 1 (treatment-emergent AE) (single dose 0.6 mg fasted): 1 (17) n (%) | Pyrexia Grade 1 (treatment-emergent AE) (single dose 0.6 mg fasted): 0 n (%) | Pyrexia Grade 2 (treatment-emergent AE) (single dose 0.6 mg fasted): 0 n (%) | URTI Grade 1 (treatment-emergent AE) (single dose 0.6 mg fasted): 0 n (%) | lab toxicity: Amylase (U/L), upwards, Grade 1 (single dose 0.6 mg fasted): 0 n (%) | lab toxicity: Amylase (U/L), upwards, Grade 2 (single dose 0.6 mg fasted): 0 n (%) | lab toxicity: Cholesterol (mmol/L), upwards, Grade 1 (single dose 0.6 mg fasted): 2 (33.3%) n (%)
